# Measured values from patent publication US11066392B2, “Inhibitors of indoleamine 2,3-dioxygenase and methods of their use” (BRISTOL-MYERS SQUIBB COMPANY, priority 2017, dated 2021).
# Read-outs that look alike come from different tables or passages of the source.
# Biological target: indoleamine 2,3-dioxygenase (IDO) (Homo sapiens, UniProt P14902)
# Assay: HeLa cell-based indoleamine 2,3-dioxygenase (IDO) assay (kynurenine production, IFNγ-stimulated)
# Conditions: HeLa cells
# Procedure: Assessment of inhibitor activity in HeLa cell-based indoleamine 2,3-dioxygenase (IDO) assay. HeLa (ATCC® CCL-2) cells were obtained from the ATCC® and cultured in Dulbecco's Modified Eagle Medium supplemented with 4.5 g/L glucose, 4.5 […] sodium pyruvate (#10-013-CV, Corning), 2 mM L-alanyl-L-glutamine dipeptide (#35050-061, Gibco), 100U/mL penicillin, 100 μg/mL streptomycin (#SV30010, HyClone) and 10% fetal bovine serum (#SH30071.03 HyClone). Cells were maintained in a humidified incubator at 37° C. in 5% CO2. […] After 24 hours, the media was aspirated and replaced with media containing IFNγ (#285-IF/CF, R&D Systems) at a final concentration of 25 ng/mL. A serial dilution of each test compound was added to the cells in a total volume of 200 μL of culture medium. After a further 48 hour incubation, 170 μL of supernatant was transferred from each well to a fresh 96-well plate. 12.1 μL of 6.1N trichloroacetic acid (#T0699, Sigma-Aldrich) was added to each well and mixed, followed by incubation at 65° C. for 20 minutes to hydrolyze N-formylkynurenine, the product of indoleamine 2,3-dioxygenase, to kynurenine. The reaction mixture was then centrifuged for 10 mins at 500×g to sediment the precipitate. 100 μL of the supernatant was transferred from each well to a fresh 96-well plate. 100 μl of 2% (w/v) p-dimethylaminobenzaldehyde (#15647-7, Sigma-Aldrich) in acetic acid (#A6283, Sigma-Aldrich) was added to each well mixed and incubated at room temperature for 20 mins. Kynurenine concentrations were determined by measuring absorbance at 480 nm and calibrating against an L-kynurenine (#K8625, Sigma-Aldrich) standard curve using a SPECTRAMAX® M2e microplate reader (Molecular Devices). The percentage activity at each inhibitor concentration was determined and IC50 values assessed using nonlinear regression. Activity for compounds described herein is provided in Table 1, wherein potency levels are provided as follows: (Potency: IDO IC50: […])
# [1] = IFNγ 25 ng/mL, 48 hour incubation, read-out: IDO Hela IC50
# [2] = potency class, read-out: Patent Potency Hela IC50 A < 10 nM, B > 10 nM, C > 100 nM
# Sequence of indoleamine 2,3-dioxygenase (IDO) (P14902 whole entry): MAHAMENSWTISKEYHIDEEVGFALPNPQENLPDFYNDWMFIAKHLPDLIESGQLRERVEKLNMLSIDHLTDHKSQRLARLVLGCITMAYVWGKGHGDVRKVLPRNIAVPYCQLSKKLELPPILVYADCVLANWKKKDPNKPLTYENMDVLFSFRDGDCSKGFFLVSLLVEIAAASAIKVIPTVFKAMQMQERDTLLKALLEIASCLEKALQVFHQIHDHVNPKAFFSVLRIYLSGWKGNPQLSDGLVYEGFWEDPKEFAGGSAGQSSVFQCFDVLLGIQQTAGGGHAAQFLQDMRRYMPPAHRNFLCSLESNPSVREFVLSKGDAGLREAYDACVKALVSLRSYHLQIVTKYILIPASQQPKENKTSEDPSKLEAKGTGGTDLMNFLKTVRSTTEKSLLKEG
SMILES,IC50 [1] [nM],IC50 [2] [nM]
"CCC(NC(=O)c1ccc(OC)nc1)C1CCC(c2ccnc3ncccc23)CC1 (mixture of isomers) [Example 52, (+/−)-Cis and trans N-(1-(4-(1,8-naphthyridin-4-yl)cyclohexyl)propyl)-6-methoxynicotinamide]",30,
"CCC(NC(=O)c1ccc(OC)nc1)C1CCC(c2ccnc(F)c2C)CC1 (mixture of isomers) [Example 55, (+/−)-Cis and trans-N-(1-(4-(2-fluoro-3-methylpyridin-4-yl)cyclohexyl)propyl)-6-methoxynicotinamide]",,< 10
"CCC(NC(=O)c1ccc(OC)nc1)[C@H]1CC[C@@H](c2ccnc3c(OC)cc(C(F)(F)F)cc32)CC1 (mixture of isomers) [Example 44, (±)-6-methoxy-N-(1-((cis)-4-(8-methoxy-6-(trifluoromethyl)quinolin-4-yl)cyclohexyl)propyl)nicotinamide]",10,
"COc1ccc(C(=O)NC(CC#N)[C@H]2CC[C@@H](c3ccnc4ccc(F)cc43)CC2)cn1 (mixture of isomers) [Example 54, Cis or trans-N-(2-cyano-1-((1s,4s)-4-(6-fluoroquinolin-4-yl)cyclohexyl)ethyl)-6-methoxynicotinamide]",10,
"[2H]C([2H])([2H])Oc1ccc(C(=O)NC(CC)[C@H]2CC[C@@H](c3ccnc(OC)c3C(F)F)CC2)cn1 (mixture of isomers) [Example 65, (±)-N-(1-((1s,4s)-4-(3-(difluoromethyl)-2-methoxypyridin-4-yl)cyclohexyl)propyl)-6-(methoxy-d3)nicotinamide]",,< 10
"CCC(NC(=O)c1ccc(OC)nc1)[C@H]1CC[C@H](c2ccnc(F)c2C)CC1 (mixture of isomers) [Example 67, (±)-N-(1-((1r,4r)-4-(2-fluoro-3-methylpyridin-4-yl)cyclohexyl)propyl)-6-methoxynicotinamide]",,> 100
"CCC(NC(=O)c1ccc(OC)nc1)C1CCC(c2ccnc3ccc(C(F)(F)F)cc23)CC1 (single isomer, unassigned) [Example 11a, 6-Methoxy-N-(1-((1s,4s)-4-(6-(trifluoromethyl)quinolin-4-yl)cyclohexyl)propyl)nicotinamide]",100,
"CCC(NC(=O)c1ccc(OC)nc1)C1CCC(c2ccnc3ccc(C(F)(F)F)cc23)CC1 (single isomer, unassigned) [Example 11b, 6-Methoxy-N-(1-((1s,4s)-4-(6-(trifluoromethyl)quinolin-4-yl)cyclohexyl)propyl)nicotinamide]",,< 10
"COCC(NC(=O)c1ccc(OC)nc1)C1CCC(c2ccnc3ccc(C(F)(F)F)cc23)CC1 (single isomer, unassigned) [Example 12a, 6-Methoxy-N-(2-methoxy-1-((1s,4s)-4-(6-(trifluoromethyl)quinolin-4-yl)cyclohexyl)ethyl)nicotinamide]",80,
"COCC(NC(=O)c1ccc(OC)nc1)C1CCC(c2ccnc3ccc(C(F)(F)F)cc23)CC1 (single isomer, unassigned) [Example 12b, 6-Methoxy-N-(2-methoxy-1-((1s,4s)-4-(6-(trifluoromethyl)quinolin-4-yl)cyclohexyl)ethyl)nicotinamide]",,< 10

# The next lines start with the values.
IC50 [1] [nM],IC50 [2] [nM],SMILES
,< 10,"CC[C@@H](NC(=O)c1ccc(OC)nc1)[C@H]1CC[C@@H](c2ccnc3c(F)cccc32)CC1 (relative stereo) [Example 59b, N-(1-(4-(8-fluoroquinolin-4-yl)cyclohexyl)propyl)-6-methoxynicotinamide]"
80,,"CCOC[C@@H](NC(=O)c1ccc(OC)nc1)[C@H]1CC[C@@H](c2ccnc3ccc(C(F)(F)F)cc32)CC1 (single isomer, unassigned) [Example 13a, N-(2-Ethoxy-1-(4-(6-(trifluoromethyl)quinolin-4-yl)cyclohexyl)ethyl)-6-methoxynicotinamide]"
,< 10,"CCOC[C@@H](NC(=O)c1ccc(OC)nc1)[C@H]1CC[C@@H](c2ccnc3ccc(C(F)(F)F)cc32)CC1 (single isomer, unassigned) [Example 13b, N-(2-Ethoxy-1-(4-(6-(trifluoromethyl)quinolin-4-yl)cyclohexyl)ethyl)-6-methoxynicotinamide]"
940,,"CCOC[C@@H](NC(=O)c1ccc(OC)nc1)[C@H]1CC[C@@H](c2ccnc3ccc(C(F)(F)F)cc32)CC1 (single isomer, unassigned) [Example 13d, N-(2-Ethoxy-1-(4-(6-(trifluoromethyl)quinolin-4-yl)cyclohexyl)ethyl)-6-methoxynicotinamide]"
,< 10,"COCCOCC(NC(=O)c1ccc(OC)nc1)C1CCC(c2ccnc3ccc(F)cc23)CC1 (single isomer, unassigned) [Example 15a, N-(1-((1s,4s)-4-(6-Fluoroquinolin-4-yl)cyclohexyl)-2-(2-methoxyethoxy)ethyl)-6-methoxynicotinamide]"
10,,"COCCOCC(NC(=O)c1ccc(OC)nc1)C1CCC(c2ccnc3ccc(F)cc23)CC1 (single isomer, unassigned) [Example 15b, N-(1-((1s,4s)-4-(6-Fluoroquinolin-4-yl)cyclohexyl)-2-(2-methoxyethoxy)ethyl)-6-methoxynicotinamide]"
40,,"COCCOCC(NC(=O)c1cnc(OC)nc1)C1CCC(c2ccnc3ccc(F)cc23)CC1 (single isomer, unassigned) [Example 16a, N-(1-((1s,4s)-4-(6-Fluoroquinolin-4-yl)cyclohexyl)-2-(2-methoxyethoxy)ethyl)-2-methoxypyrimidine-5-carboxamide]"
,< 10,"COCCOCC(NC(=O)c1cnc(OC)nc1)C1CCC(c2ccnc3ccc(F)cc23)CC1 (single isomer, unassigned) [Example 16b, N-(1-((1s,4s)-4-(6-Fluoroquinolin-4-yl)cyclohexyl)-2-(2-methoxyethoxy)ethyl)-2-methoxypyrimidine-5-carboxamide]"
30,,"COc1ccc(C(=O)N[C@H](CC2(C)COC2)[C@H]2CC[C@@H](c3ccnc4ccc(C(F)(F)F)cc43)CC2)cn1 (single isomer, unassigned) [Example 17a, 6-Methoxy-N-(2-(3-methyloxetan-3-yl)-1-(4-(6-(trifluoromethyl)quinolin-4-yl)cyclohexyl)ethyl)nicotinamide]"
350,,"COc1ccc(C(=O)N[C@H](CC2(C)COC2)[C@H]2CC[C@@H](c3ccnc4ccc(C(F)(F)F)cc43)CC2)cn1 (single isomer, unassigned) [Example 17b, 6-Methoxy-N-(2-(3-methyloxetan-3-yl)-1-(4-(6-(trifluoromethyl)quinolin-4-yl)cyclohexyl)ethyl)nicotinamide]"
,> 100,"COc1ccc(C(=O)N[C@H](CC2(C)COC2)[C@H]2CC[C@@H](c3ccnc4ccc(C(F)(F)F)cc43)CC2)cn1 (single isomer, unassigned) [Example 17c, 6-Methoxy-N-(2-(3-methyloxetan-3-yl)-1-(4-(6-(trifluoromethyl)quinolin-4-yl)cyclohexyl)ethyl)nicotinamide]"
,> 100,"COc1ccc(C(=O)N[C@H](CC2(C)COC2)[C@H]2CC[C@@H](c3ccnc4ccc(C(F)(F)F)cc43)CC2)cn1 (single isomer, unassigned) [Example 17d, 6-Methoxy-N-(2-(3-methyloxetan-3-yl)-1-(4-(6-(trifluoromethyl)quinolin-4-yl)cyclohexyl)ethyl)nicotinamide]"
830,,"CCC(NC(=O)c1ccc(OC)nc1)C1CCC(c2ccnc3c(C(F)(F)F)cccc23)CC1 (single isomer, unassigned) [Example 18a, 6-Methoxy-N-(1-((1s,4s)-4-(8-(trifluoromethyl)quinolin-4-yl)cyclohexyl)propyl)nicotinamide]"
,< 10,"CCC(NC(=O)c1ccc(OC)nc1)C1CCC(c2ccnc3c(C(F)(F)F)cccc23)CC1 (single isomer, unassigned) [Example 18b, 6-Methoxy-N-(1-((1s,4s)-4-(8-(trifluoromethyl)quinolin-4-yl)cyclohexyl)propyl)nicotinamide]"
,> 100,"CCC(NC(=O)c1ccc(OC)nc1)C1CCC(c2ccnc3cc(C(F)(F)F)ccc23)CC1 (single isomer, unassigned) [Example 19a, 6-Methoxy-N-(1-((1s,4s)-4-(7-(trifluoromethyl)quinolin-4-yl)cyclohexyl)propyl)nicotinamide]"
10,,"CCC(NC(=O)c1ccc(OC)nc1)C1CCC(c2ccnc3cc(C(F)(F)F)ccc23)CC1 (single isomer, unassigned) [Example 19b, 6-Methoxy-N-(1-((1s,4s)-4-(7-(trifluoromethyl)quinolin-4-yl)cyclohexyl)propyl)nicotinamide]"
